Experiment: Human HepG2 cell viability assay in 384 well format
Format: toxicity, cell-based
Design: dose 125 nL, time 70.5 hour; concentration not given beside the values
Details: HepG2 cells, read-out: Inhibition

SMILES	cytotoxicity at 70.5 h [%]
N#Cc1ccc(F)c(CNC(=O)NC(CO)c2ccccc2)c1 (centres undefined)	13.7
COC(=O)COc1cc(NCc2c(C)noc2C)c(Cl)cc1C	-5.04
Cc1ccc(Br)c(S(=O)(=O)NCc2ccnn2C)c1	-5.04
N#Cc1ccc(C(=O)O)nc1/C=C/c1cccc(Cl)c1	7.88
CCC(CC)(CCO)CNC(=O)c1ccon1	-8.6
O=C(COc1ccccc1)NCC1CC1	9.36
CCc1nnc(C2Cc3ccccc3CN2Cc2ncc(Cl)n2C)o1 (centres undefined)	-6.23
Cc1cc(CN2CCc3cncnc3C2)no1	-8.98
Oc1cccc(C2CN(c3nnc(C4CC4)s3)CCO2)c1 (centres undefined)	-4.99
CC(C)CCn1ccc(NC(=O)N2CCCC2C(C)(C)O)n1 (centres undefined)	-6.63
CCc1nc(CN2CCCN(CC(=O)N3CCOCC3)CC2)no1	41.7
Cc1c(C(C)NC(=O)C2CCCC2)cnn1C (centres undefined)	36.2
Cc1c(C(C)NC(=O)N2CCN(C3CCCC3)CC2)cnn1C (centres undefined)	54.3
CCCNC(=O)CCNC(=O)c1sc2ccc(F)cc2c1C	31.9
N#Cc1ccc(CN2C(=O)c3ccccc3CS2(=O)=O)c(F)c1	2.45
CC(=O)NCCCNC(=O)Nc1ccccc1-n1nc(C)cc1C	0.874
Cc1c(C(=O)NCCCC(N)=O)sc2ccc(F)cc12	25.3
Cc1nc2n(n1)CC(Nc1ccnc(-c3ccccc3)n1)CC2 (centres undefined)	-6.55
CCCc1nnc(NC(=O)NC(CCO)c2cccs2)s1 (centres undefined)	-3.88
Cc1cnc(NC(=O)NC(CCO)c2cccs2)s1 (centres undefined)	-3.17

SMILES	cytotoxicity at 70.5 h [%]
CCCn1nc2c(cc1=O)CN(C(C)C(=O)Nc1nccs1)CC2 (centres undefined)	4.51
CC(C)Cc1nnc(NC(=O)NC(CCO)c2cccs2)s1 (centres undefined)	-3.34
CC(C(=O)Nc1ccnn1C(C)C)N1CCc2nn(C)c(=O)cc2C1 (centres undefined)	4.22
OCC1(NCc2cnc(-c3cccs3)s2)CCOCC1	-6.15
CN(C(=O)NCc1nccn1Cc1ccccc1)C1CC1	9.16
OCC1(NCc2cnc(-c3ccsc3)s2)CCOCC1	-6.13
COc1ccc(CC(=O)NC2(C#N)CCOCC2)c(Cl)c1	3.22
O=C(NCc1nccn1CCc1ccccc1)NCC1CCC1	2.35
COc1ccc(C)cc1CC(=O)NC1(C#N)CCOCC1	29.1
Cc1cnc(CN2CC=C(c3c[nH]c4ncccc34)CC2)o1	5.53
O=C(NCC1(CO)CC1)NC(c1nccs1)C1CC1 (centres undefined)	-3.86
Cc1noc(CN(Cc2cccc(C#N)c2)Cc2cccs2)n1	0.497
N#Cc1cccc(OCCN2CCCC2C(=O)N2CCSCC2)c1 (centres undefined)	3.62
Cc1occc1CNC(=O)C1CCN(C(=O)OC(C)(C)C)C1 (centres undefined)	-0.732
CC(C(=O)Nc1ccc(Cl)cn1)N1CCc2nn(C)c(=O)cc2C1 (centres undefined)	-2.78
Cc1cnc(C(NC(=O)NCC2(CO)CC2)C2CC2)s1 (centres undefined)	2.13
O=C(c1cccc(F)c1Cl)N(CCO)CC1CC1	-1.98
NC(=O)c1ccc(N2CCCCC2)c(NC(=O)c2ccc(F)cc2Cl)c1	3.11
CCNC(=O)C1CCN(Cn2nc(-c3ccccc3)oc2=O)CC1	-1.22
O=c1oc(-c2ccccc2)nn1CN1CCC(N2CCCCC2)CC1	24.3

SMILES	cytotoxicity at 70.5 h [%]
O=C(CCCn1cncn1)NC1(c2ccc(Cl)cc2)CCC1	-1.83
Cc1ccc(CN(C)C(=O)CN2CCCC2Cn2cncn2)cc1 (centres undefined)	-3.7
CN(Cc1ccccc1)C(=O)CN1CCCCC1Cn1cncn1 (centres undefined)	1.47
O=C(NC1CCC(C(=O)N2CCSCC2)CC1)N1CCC1 (centres undefined)	-6.98
CN(Cc1cnn(C)c1)C(=O)CN1CCCCC1Cn1cncn1 (centres undefined)	-7.41
CC(C)c1nc(CNC2CCCN(c3cccnn3)C2)no1 (centres undefined)	21
NC(=O)c1ccc(N2CCCCC2)c(NC(=O)c2cc(F)ccc2F)c1	-4.2
CCNC(=O)Cc1c(C)nc2c(c1C)c(=O)[nH]n2C	-5.26
c1cnnc(N2CCCC(NCc3nc(-c4ccsc4)no3)C2)c1 (centres undefined)	-0.51
COC(=O)[C@H](C)NC(=O)Cc1c(C)nc2c(c1C)c(=O)[nH]n2C	-2.82
c1ccc(-c2noc(CNC3CCCN(c4cccnn4)C3)n2)nc1 (centres undefined)	0.881
Cc1cccc(C2(NC(=O)CCCn3cncn3)CCCC2)c1	-5.53
O=C(CCCn1cncn1)NC1(c2cccc(Br)c2)CC1	4.56
CC(C)(C)OC(=O)N1CCCc2ccc(NCc3ccon3)cc21	-4.98
CC(C)c1ocnc1C(=O)NC1(c2cccc(F)c2)CCOCC1	-3.27
O=C(C1CC1)N1CCC(Oc2ccccc2Cl)CC1	20.6
CC(C)C1CN(C(=O)c2cccs2)CCS1 (centres undefined)	-4.53
CCN(Cc1ccccc1)C(=O)CN1CCCCC1Cn1cncn1 (centres undefined)	-6.76
Cc1cc(NC(=O)C(c2cccc(F)c2)N2CCOCC2)sn1 (centres undefined)	8.13

From ChEMBL document CHEMBL3507680, “University of Dundee, Gates Library screen for HepG2 cell viability”
